# Source: US20260317335A1, “COMPOUNDS OF FUSED PYRROLE RINGS OR FUSED PYRIDINE RINGS” (PHARMAENGINE, INC., priority 2023, published 2026)
# Test system: HCC1569 (CCNE1-amplified breast cancer cell line)
# Experiment: Cell Proliferation Assay (CellTiter-Glo, 7 days)
# Format: cell-based
# Procedure: The sensitivity of cancer cell lines with normal or elevated CCNE1 levels to test compounds was evaluated in a cell proliferation assay. Cell lines were maintained in ATCC-recommended culture media supplemented with 10% FBS and 1% penicillin/streptomycin in a humidified 5% CO2 incubator. All test compounds were stored as 20 mM DMSO stock solutions.
# On Day 0, CCNE1-wild type (wt) and CCNE1-amplified (amp) cells were seeded into 384-well plates and incubated for 16 to 24 hours in a humidified 5% CO2 incubator. On Day 1, test compounds were dispensed into wells at specified concentrations (n=2), with DMSO volume normalized to the highest concentration. Plates with compound-treated cells were incubated for 7 days in a humidified 5% CO2 incubator.
# On Day 7, plates were removed from the incubator and equilibrated to room temperature. Relative inhibition was assessed by adding CellTiter-Glo reagent. Data were plotted as a percentage of the DMSO control for each compound in each cell line. IC50 values were calculated using a four-parameter nonlinear regression model (GraphPad Prism).
row,Structure (SMILES),IC50 [nM]
1,Cc1ccc2[nH]ncc2c1-n1c(N)c2c3c(c(C)c(C)nc31)C=CNC2=O [Compound 126],666
2,Cc1nc2c3c(c1C)C=CNC(=O)c3c(N)n2-c1c(Cl)cc(F)c2[nH]ncc12 [Compound 136],> 1000
3,Cc1nc2c3c(c1C)C=CNC(=O)c3c(N)n2-c1c(Cl)c(F)cc2[nH]ncc12 [Compound 137],566
4,Cc1nc2c3c(c1C)C=CNC(=O)c3c(N)n2-c1c(C)c(F)cc2[nH]ncc12 [Compound 138],> 1000
5,"Cc1cc2c(C(N)=O)c(N)n(-c3c(C)ccc(O)c3C)c2nc1C [Rp6306, reference compound]",18
